Source: patent US20140163095A1, “USE OF ERIBULIN IN THE TREATMENT OF BREAST CANCER” (priority 2012, published 2014)

Tested on: subjects with locally recurrent or metastatic HER2 negative breast cancer
Experiment: Phase II first-line trial, safety outcomes
Procedure: A multi-center, single-arm, phase II clinical trial of eribulin mesylate was performed to evaluate the objective response rate (ORR) (according to RECIST v1.1) to first-line treatment with single-agent eribulin mesylate in subjects with locally recurrent or metastatic HER2 negative breast cancer. Secondary objectives included the safety and tolerability of eribulin mesylate, time to first response, duration of response (DOR), and progression free survival (PFS).

## C=C1C[C@@H]2CC[C@@]34C[C@H]5O[C@H]6[C@@H](O3)[C@H]3O[C@H](CC[C@@H]3O[C@H]6[C@H]5O4)CC(=O)C[C@@H]3[C@@H](OC)[C@@H](C[C@H](O)CN)O[C@H]3C[C@H]3O[C@@H](CC[C@@H]1O2)C[C@@H](C)C3=C.CS(=O)(=O)O [Eribulin, 11,15:18,21:24,28-Triepoxy-7,9-ethano-12,15-methano-9H,15H-furo[3,2-i]furo[2′,3′:5,6]pyrano[4,3-b][1,4]dioxacyclopentacosin-5(4H)-one, 2-[(2S)-3-amino-2-hydroxypropyl]hexacosahydro-3-methoxy-26-methyl-20,27-bis(methylene)-, (2R,3R,3aS,7R,8aS,9S,10aR,11S,12R,13aR,13bS,15S,18S,21S,24S,26R,28R,29aS)-methanesulfonate (salt)]
1/51
  incidence of markedly abnormal lab value: low platelets: 2%
1 patient
  leucopenia (treatment-related SAE): 1.8%
3/52, throughout the study
  patients with an abnormal but not clinically significant finding: 5.8%
3 patients
  Febrile neutropenia (treatment-related SAE): 5.4%
5 patients
  Treatment-related SAEs: 8.9%
6 patients
  patients who discontinued the study due to an AE: 10.7%
8/44
  incidence of markedly abnormal lab value: low lymphocytes: 18.2%
8/55
  incidence of markedly abnormal lab value: low hemoglobin: 14.5%
20 patients
  patients with dose interrupted/delayed due to treatment-related AEs: 35.7%
  patients with dose reduced due to treatment-related AEs: 35.7%
30 patients
  Treatment-related AEs leading to dose adjustment (interruption/delay, reduction, or discontinuation): 53.6%
31/54
  incidence of markedly abnormal lab value: low leukocytes: 57.4%
36 patients
  patients with a treatment-related AE with CTCAE grade ¾: 64.3%
41/53
  incidence of markedly abnormal lab value: low neutrophils: 77.4%
All grades, N = 56
  Treatment-related AE: Alopecia: 47 (83.9) n (%)
  Treatment-related AE: Anemia: 20 (35.7) n (%)
  Treatment-related AE: Constipation: 15 (26.8) n (%)
  Treatment-related AE: Diarrhea: 14 (25.0) n (%)
  Treatment-related AE: Fatigue: 34 (60.7) n (%)
  Treatment-related AE: Leukopenia: 19 (33.9) n (%)
  Treatment-related AE: Nausea: 27 (48.2) n (%)
  Treatment-related AE: Neutropenia: 40 (71.4) n (%)
  Treatment-related AE: Peripheral neuropathy: 32 (57.1) n (%)
Grade 3/4, N = 56
  Treatment-related AE: Anemia: 2 (3.6) n (%)
  Treatment-related AE: Constipation: 0 n (%)
  Treatment-related AE: Diarrhea: 0 n (%)
  Treatment-related AE: Fatigue: 1 (1.8) n (%)
  Treatment-related AE: Leukopenia: 12 (21.4) n (%)
  Treatment-related AE: Nausea: 0 n (%)
  Treatment-related AE: Neutropenia: 28 (50.0) n (%)
  Treatment-related AE: Peripheral neuropathy: 11 (19.6) n (%)
human, in vivo
  Alopecia, neutropenia, fatigue, and peripheral neuropathy (most commonly observed treatment-related AEs), each occurring in patients: > 50%
  duration of grade ¾ peripheral neuropathy (median): 2.3 months
  median time to first occurrence of peripheral neuropathy: 4 months
In words
  AE requiring drug withdrawal in the remaining discontinued patient: prolonged QT interval requiring drug withdrawal
Most common grade ¾ AE
  grade ¾ neutropenia, patients: 50%
Number of patients
  Febrile neutropenia (grade 3/4): 4 patients
Of the 6 events resulting in discontinuations
  discontinuations for which peripheral neuropathy was responsible: 5
